One data set relates to Klebsiella pneumoniae. The data set is described as follows: Antibacterial activity against Klebsiella pneumoniae assessed as inhibition of bacterial growth measured after 24 hrs by CLSI based broth microdilution method. Type of data set: functional. (In general: Dilution methods test growth across graded concentrations, often in twofold steps.)
Data set [1] relates to Pseudomonas aeruginosa. The data set is described as follows: Antibacterial activity against Pseudomonas aeruginosa assessed as inhibition of bacterial growth measured after 24 hrs by CLSI based broth microdilution method. In kind it is functional.
Another data set deals with Acinetobacter baumannii. The data set is described as follows: Antibacterial activity against Acinetobacter baumannii assessed as inhibition of bacterial growth measured after 24 hrs by CLSI based broth microdilution method. Type of data set: functional.
The subject of data set [2] is Escherichia coli. The data set is described as follows: Antibacterial activity against Escherichia coli ATCC 25922 assessed as inhibition of bacterial growth measured after 24 hrs by CLSI based broth microdilution method. Type of data set: functional.
Data set [3] has as its system Pseudomonas aeruginosa. Description: Antibacterial activity against Pseudomonas aeruginosa ATCC 27853 assessed as inhibition of bacterial growth measured after 24 hrs by CLSI based broth microdilution method. In kind it is functional.
Data set [4] relates to Escherichia coli. Description: Antibacterial activity against Escherichia coli assessed as inhibition of bacterial growth measured after 24 hrs by CLSI based broth microdilution method. In kind it is functional.
In data set [5] the test system is Enterococcus faecalis. The data set is described as follows: Antibacterial activity against Enterococcus faecalis assessed as inhibition of bacterial growth measured after 24 hrs by CLSI based broth microdilution method. Type of data set: functional.
Data set [6] relates to Staphylococcus aureus. Description: Antibacterial activity against methicillin-resistant Staphylococcus aureus N315 assessed as inhibition of bacterial growth measured after 24 hrs by CLSI based broth microdilution method. In kind it is functional.
The subject of data set [7] is Staphylococcus aureus. The data set is described as follows: Antibacterial activity against Staphylococcus aureus assessed as inhibition of bacterial growth measured after 24 hrs by CLSI based broth microdilution method. In kind it is functional.
In data set [8] the test system is Staphylococcus aureus. Description: Antibacterial activity against Staphylococcus aureus ATCC 25923 assessed as inhibition of bacterial growth measured after 24 hrs by CLSI based broth microdilution method. In kind it is functional.
Data set [9] has as its system Enterococcus faecalis. The data set is described as follows: Bactericidal activity against Enterococcus faecalis assessed as reduction in colony forming units at 4 times MIC measured after 1.5 to 6 hrs by time-kill kinetics assay. In kind it is functional. The settings on record: time 1.5-6 hrs.
Data set [10] concerns Enterococcus faecalis. The data set is described as follows: Antibiofilm activity against Enterococcus faecalis assessed as reduction in biofilm formation at upto 8 times MIC measured after 24 hrs by crystal violet staining based analysis relative to control. In kind it is functional. Also noted: scale not given: the % may be the effect or the level left.
Data set [11] deals with Cell membrane. The data set is described as follows: Disruption of membrane integrity in Escherichia coli ATCC 25922 assessed as membrane damage by measuring PI fluorescence at 1 to 8 times MIC incubated for 8 hrs by PI staining based analysis. In kind it is subcellular.
For data set [12], the system named is Cell membrane. The data set is described as follows: Induction of membrane depolarization in Enterococcus faecalis assessed as increase in fluorescence intensity at 1 times MIC measured after 10 to 60 mins by diSC35 dye based fluorescence assay. In kind it is subcellular. Particulars: time 10-60 min, TDE = time-dependent effect.
Data set [13] has as its system Calf thymus DNA. Description: Binding affinity to calf thymus DNA assessed as compound-DNA complex formation by measuring hypochromic shift by UV-visible absorption spectrophotometric method. In kind it is nucleic-acid assay. The settings on record: Bos taurus.
The test system of data set [14] is Calf thymus DNA. The data set is described as follows: Binding affinity to calf thymus DNA assessed as DNA intercalation by neutral red dye uptake method. Type of data set: nucleic-acid assay. The settings on record: Bos taurus.
In data set [15] the test system is Erythrocyte. The data set is described as follows: Hemolytic activity in human RBC at 512 ug/ml incubated for 2 hrs by microplate reader analysis. Type of data set: toxicity, cell-based. The settings on record: dose 512 µg/ml.
Data set [16] concerns Enterococcus faecalis. The data set is described as follows: Antibiofilm activity against Enterococcus faecalis assessed as reduction in biofilm formation at MIC measured after 24 hrs by crystal violet staining based analysis relative to control. Type of data set: functional. Also noted: scale not given: the % may be the effect or the level left.
The test system of data set [17] is Cell membrane. Description: Disruption of membrane integrity in Enterococcus faecalis assessed as membrane damage by measuring increase in red fluorescence at 2 to 8 times MIC incubated for 8 hrs by PI staining based fluorescence microscopic analysis. Type of data set: subcellular.
The subject of data set [18] is Erythrocyte. The data set is described as follows: Hemolytic activity in human RBC assessed as morphological changes at 512 ug/ml incubated for 2 hrs by microscopic analysis. Particulars: dose 512 µg/ml. Type of data set: toxicity, cell-based.
Data set [19] deals with Cell membrane. Description: Disruption of membrane integrity in Enterococcus faecalis assessed as membrane damage by measuring PI-DNA complex formation at 2 times MIC incubated for 20 to 200 mins by PI staining based analysis. Particulars: time 20-200 min, TDE = time-dependent effect.
Data set [20] has as its system Enterococcus faecalis. Description: Induction of intracellular ROS production in Enterococcus faecalis assessed as fold increase in intracellular ROS level at 0.25 ug/ml incubated for 6 hrs by DCFH-DA assay relative to control. Particulars: dose 0.25 µg/ml. Type of data set: functional.
Data set [21] has as its system Cell membrane. The data set is described as follows: Induction of membrane damage in Enterococcus faecalis assessed as increase in protein leakage measured after 6 hrs by Bradford assay. Type of data set: subcellular. The settings on record: DDE = dose-dependent effect.
Data set [22] concerns Enterococcus faecalis. Description: Induction of intracellular ROS production in Enterococcus faecalis assessed as fold increase in intracellular ROS level at 2 ug/ml incubated for 6 hrs by DCFH-DA assay relative to control. In kind it is functional. Particulars: dose 2 µg/ml.
Data set [23] relates to Cell membrane. Description: Disruption of membrane integrity in Enterococcus faecalis assessed as membrane damage by measuring PI fluorescence at 1 to 8 times MIC incubated for 8 hrs by PI staining based analysis. In kind it is subcellular.

Six compounds from ChEMBL document CHEMBL5143638, “Natural aloe emodin-hybridized sulfonamide aminophosphates as novel potential membrane-perturbing and DNA-intercalating agents against Enterococcus faecalis” (Bioorg Med Chem Lett, 2022) can be followed below.

One may read the MIC as the lowest concentration that inhibits growth of the organism.

In brackets after ≈: the same amount, converted by molar mass. Activity calls are given as the source filed them. The rule behind the calls is not given here.

For `COP(=O)(OC)C(Nc1ccc(S(N)(=O)=O)cc1)c1cc(O)c2c(c1)C(=O)c1cccc(O)c1C2=O` (stereo not given), the MIC in the data set on Klebsiella pneumoniae came to 128 µg/mL (≈ 240 µM); with Pseudomonas aeruginosa [1] it was 64 µg/mL (≈ 120 µM); with Acinetobacter baumannii it was 0.5 µg/mL (≈ 0.939 µM); in the data set on Escherichia coli [2], 8 µg/mL (≈ 15 µM); with Pseudomonas aeruginosa [3], 32 µg/mL (≈ 60.1 µM); with Escherichia coli [4], 2 µg/mL (≈ 3.76 µM). Moreover, the MIC was 0.25 µg/mL (≈ 0.47 µM) with Enterococcus faecalis [5], 16 µg/mL (≈ 30 µM) in the data set with Staphylococcus aureus [6], 32 µg/mL (≈ 60.1 µM) with Staphylococcus aureus [7] and 128 µg/mL (≈ 240 µM) in the data set on Staphylococcus aureus [8].
Consider `Cc1noc(NS(=O)(=O)c2ccc(NC(c3cc(O)c4c(c3)C(=O)c3cccc(O)c3C4=O)P(=O)(OC(C)C)OC(C)C)cc2)c1C` (stereo not given), for which the MIC in the data set on Klebsiella pneumoniae was 2 µg/mL (≈ 2.93 µM); in the data set with Pseudomonas aeruginosa [1], 2 µg/mL (≈ 2.93 µM); in the data set on Acinetobacter baumannii it was 2 µg/mL (≈ 2.93 µM); with Escherichia coli [2], 0.5 µg/mL (≈ 0.731 µM); in the data set with Pseudomonas aeruginosa [3], 256 µg/mL (≈ 374 µM); with Escherichia coli [4], 64 µg/mL (≈ 93.6 µM). The MIC in the data set with Enterococcus faecalis [5] is 64 µg/mL (≈ 93.6 µM); in the data set with Staphylococcus aureus [6], 0.25 µg/mL (≈ 0.366 µM); with Staphylococcus aureus [7], 2 µg/mL (≈ 2.93 µM); in the data set on Staphylococcus aureus [8], 2 µg/mL (≈ 2.93 µM).
As to `CCCCOP(=O)(OCCCC)C(Nc1ccc(S(N)(=O)=O)cc1)c1cc(O)c2c(c1)C(=O)c1cccc(O)c1C2=O` (stereo not given), the MIC with Klebsiella pneumoniae, in the data set on Pseudomonas aeruginosa [1], with Acinetobacter baumannii, with Escherichia coli [2], in the data set with Pseudomonas aeruginosa [3] and with Escherichia coli [4] was 256 µg/mL (≈ 415 µM) throughout. The MIC was 128 µg/mL (≈ 208 µM) in the data set on Enterococcus faecalis [5], 64 µg/mL (≈ 104 µM) in the data set with Staphylococcus aureus [6], 256 µg/mL (≈ 415 µM) with Staphylococcus aureus [7] and 256 µg/mL (≈ 415 µM) in the data set on Staphylococcus aureus [8].
For the compound `Nc1ccc(S(=O)(=O)Nc2nccs2)cc1` [SULFATHIAZOLE], the MIC in the data set on Klebsiella pneumoniae is 256 µg/mL (≈ 1000 µM); in the data set on Pseudomonas aeruginosa [1], 64 µg/mL (≈ 251 µM); in the data set on Acinetobacter baumannii, 32 µg/mL (≈ 125 µM); in the data set with Escherichia coli [2], 64 µg/mL (≈ 251 µM); in the data set with Pseudomonas aeruginosa [3], 64 µg/mL (≈ 251 µM); in the data set on Escherichia coli [4], 64 µg/mL (≈ 251 µM). Also, the MIC was determined as 64 µg/mL (≈ 251 µM) in the data set with Enterococcus faecalis [5], 128 µg/mL (≈ 501 µM) in the data set with Staphylococcus aureus [6], 128 µg/mL (≈ 501 µM) in the data set on Staphylococcus aureus [7] and 64 µg/mL (≈ 251 µM) in the data set on Staphylococcus aureus [8].
`CCOP(=O)(OCC)C(Nc1ccc(S(=O)(=O)Nc2ncccn2)cc1)c1cc(O)c2c(c1)C(=O)c1cccc(O)c1C2=O` (stereo not given): the MIC in the data set on Klebsiella pneumoniae was 0.5 µg/mL (≈ 0.783 µM); with Pseudomonas aeruginosa [1], 8 µg/mL (≈ 12.5 µM); with Acinetobacter baumannii, 16 µg/mL (≈ 25.1 µM); with Escherichia coli [2], 0.25 µg/mL (≈ 0.391 µM); with Pseudomonas aeruginosa [3] it was 0.25 µg/mL (≈ 0.391 µM); with Escherichia coli [4], 2 µg/mL (≈ 3.13 µM). In addition, the MIC was 0.25 µg/mL (≈ 0.391 µM) with Enterococcus faecalis [5], 8 µg/mL (≈ 12.5 µM) in the data set with Staphylococcus aureus [6], 128 µg/mL (≈ 200 µM) in the data set on Staphylococcus aureus [7] and 2 µg/mL (≈ 3.13 µM) in the data set with Staphylococcus aureus [8]. Moreover, the Activity in the data set on Enterococcus faecalis [9] is 3 log10CFU/ml; with Enterococcus faecalis [10], “<=79%”; in the data set with Cell membrane [12], “Tde”; in the data set with Erythrocyte [15] it was “Non-Toxic”; in the data set on Enterococcus faecalis [16], 30%; in the data set with Erythrocyte [18], “Non-Toxic”. Further, the Activity entry in the data set on Cell membrane [19] was “Tde”; in the data set on Cell membrane [21], “Dde”. For the same compound, the result in the data set with Cell membrane [11], in the data set on Calf thymus DNA [13], with Calf thymus DNA [14], in the data set on Cell membrane [17] and in the data set on Cell membrane [23] was Active. The “fold change (FC)” value in the data set on Enterococcus faecalis [20] stood at 1.2; in the data set with Enterococcus faecalis [22], 2.4.
Turning to `Nc1ccc(S(=O)(=O)Nc2ncccn2)cc1` [SULFADIAZINE], the minimum inhibitory concentration (MIC) with Klebsiella pneumoniae was 256 µg/mL (≈ 1020 µM); in the data set with Pseudomonas aeruginosa [1] it was 8 µg/mL (≈ 32 µM); in the data set with Acinetobacter baumannii it was 32 µg/mL (≈ 128 µM); in the data set with Escherichia coli [2] it was 32 µg/mL (≈ 128 µM); with Pseudomonas aeruginosa [3], 64 µg/mL (≈ 256 µM); in the data set on Escherichia coli [4] it was 64 µg/mL (≈ 256 µM). The MIC with Enterococcus faecalis [5] came to 16 µg/mL (≈ 63.9 µM); in the data set on Staphylococcus aureus [6], 64 µg/mL (≈ 256 µM); in the data set on Staphylococcus aureus [7], 64 µg/mL (≈ 256 µM); with Staphylococcus aureus [8], 16 µg/mL (≈ 63.9 µM).
